Experimental data as given in patent US20060166992A1, “Heterocyclically substituted imidazotriazines” (Bayer Healthcare A G, priority 2002, published 2006).

What was measured:
PDE 10A = molecular target: T1, PDE 10A (Homo sapiens, UniProt Q9Y233); assay: Inhibition of PDE 10A (scintillation proximity assay, [3H]cAMP substrate); format: biochemical; conditions: recombinant full-length PDE 10A expressed in Sf9 insect cells; 60 min at 20° C.
T1 construct: is expressed recombinantly in full length in Sf9 insect cells; made in house; host or cells: Sf9 insect cells (Bac-to-Bac baculovirus expression system)
T1 sequence (Q9Y233 1-779 isoform Q9Y233-1): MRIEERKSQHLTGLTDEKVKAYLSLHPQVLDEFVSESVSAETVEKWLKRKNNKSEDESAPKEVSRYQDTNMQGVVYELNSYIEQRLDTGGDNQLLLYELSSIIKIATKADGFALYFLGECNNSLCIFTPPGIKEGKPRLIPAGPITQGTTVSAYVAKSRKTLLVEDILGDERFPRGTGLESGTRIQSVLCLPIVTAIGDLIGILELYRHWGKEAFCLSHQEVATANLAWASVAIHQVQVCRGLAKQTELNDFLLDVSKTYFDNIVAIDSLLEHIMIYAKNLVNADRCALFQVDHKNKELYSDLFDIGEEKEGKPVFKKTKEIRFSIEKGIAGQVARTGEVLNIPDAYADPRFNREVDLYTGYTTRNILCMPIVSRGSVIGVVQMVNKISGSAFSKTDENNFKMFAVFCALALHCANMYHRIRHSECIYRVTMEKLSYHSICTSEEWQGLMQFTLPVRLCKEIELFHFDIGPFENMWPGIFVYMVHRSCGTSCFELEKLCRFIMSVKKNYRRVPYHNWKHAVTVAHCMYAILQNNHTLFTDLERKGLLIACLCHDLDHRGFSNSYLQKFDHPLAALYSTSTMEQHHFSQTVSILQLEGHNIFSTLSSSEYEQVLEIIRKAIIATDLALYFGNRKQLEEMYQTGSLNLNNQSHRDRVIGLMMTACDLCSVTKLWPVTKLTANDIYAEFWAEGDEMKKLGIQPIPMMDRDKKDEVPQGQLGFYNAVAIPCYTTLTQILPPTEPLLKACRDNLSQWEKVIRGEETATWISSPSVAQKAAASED
Protocol: PDE 10A (WO 01/29 199, FIG. 1A) is expressed recombinantly in full length in Sf9 insect cells (Invitrogen, Carlsbad, Calif.) with the aid of the Bac-to-Bac™ Baculovirus expression system from Life Technologies (Gaithersburg, Md.). 48 h after infection, the cells are harvested and suspended in 20 ml (per 11 of culture) of lysis buffer (50 mM tris HCl, pH 7.4, 50 mM NaCl, 1 mM MgCl2, 1.5 mM EDTA, 10% glycerol plus 20 μl of Protease Inhibitor Cocktail Set II [CalBiochem, La Jolla, Calif. USA]). The cells are treated with ultrasound at 4° C. for 1 minute and subsequently centrifuged at 10 000 rpm for 30 minutes at 4° C. The supernatant (PDE 10A preparation) was collected and stored at −20° C.
The test substances are dissolved in 100% DMSO for the determination of their in vitro action on PDE 10A and serially diluted. Typically, dilution series from 200 μM to 1.6 μM are prepared (resulting final concentrations in the test: 4 μM to 0.032 μM). 2 μl of the diluted substance solutions in each case are introduced into the hollows of microtiter plates (Isoplate; Wallac Inc., Atlanta, Ga.). Subsequently, 50 μl of a dilution of the PDE 10A preparation described above are added. The dilution of the PDE 10A preparation is chosen such that during the later incubation less than 70% of the substrate is reacted (typical dilution: 1:10 000; dilution buffer: 50 mM tris/HCl pH 7.5, 8.3 mM MgCl2, 1.7 mM EDTA, 0.2% BSA). The substrate, [5′,8-^3H] adenosine 3′,5′-cyclic phosphate (1 μCi/μl; Amersham Pharmacia Biotech., Piscataway, N.J.) is diluted 1:2000 with assay buffer (50 mM tris/HCl pH 7.5, 8.3 mM MgCl2, 1.7 mM EDTA) to a concentration of 0.0005 μCi/μl. The enzyme reaction is finally started by addition of 50 μl (0.025 μCi) of the diluted substrate. The test batches are incubated for 60 min at 20° C. and the reaction is stopped by addition of 25 μl of a suspension containing 18 mg/ml of Yttrium Scintillation Proximity Beads (Amersham Pharmacia Biotech., Piscataway, N.J.). The microtiter plates are sealed using a film and allowed to stand for 60 min at 20° C. Subsequently, the plates are measured for 30 s per hollow in a Microbeta scintillation counter (Wallac Inc., Atlanta, Ga.). IC50 values are determined by means of graphic plotting of the substance concentration against the percentage inhibition.
The PDE 10A-inhibiting action of the compounds according to the invention may be shown by the following examples: […]

haloperidol catalepsy [1] = assay: Catalepsy test on rats (potentiation of haloperidol catalepsy); format: in vivo; conditions: 3 mg/kg intraperitoneal together with haloperidol (0.3 mg/kg s.c.), significant
Protocol: The period of time which elapses up to the correction of an imposed position can be used as a measure of the intensity of catalepsy.
A low dose of haloperidol (0.3 mg/kg s.c.) is given on its own 30 min before the catalepsy test or administered together with the compound. In order to measure the cataleptic behavior, both forepaws of the rat are put onto a block of wood of 9 cm height and 5.5 cm width×5.5 cm depth. The time which elapses until an animal pulls its forepaws down from the block again is recorded as the duration of catalepsy. All rats are taken from the block of wood after 60 seconds at the latest. The data acquired from each treatment group (10 animals in each case) are analyzed statistically by means of variance analysis (ANOVA).

haloperidol catalepsy [2] = conditions: described in EP-A 1 250 923; cited from earlier work

| SMILES | IC50 (PDE 10A) [µM] | increase in the duration of catalepsy (haloperidol catalepsy [1]) [%] | effect on haloperidol catalepsy (haloperidol catalepsy [2]) |
| --- | --- | --- | --- |
| COc1cc(Nc2nc(-c3cnc(C)s3)nn3c(C)nc(C)c23)cc(OC)c1OC [Example 12, 5,7-Dimethyl-2-(2-methyl-1,3-thiazol-5-yl)-N-(3,4,5-trimethoxyphenyl)imidazo-[5,1-f][1,2,4]triazin-4-amine] | 0.093 | – | – |
| COc1cc(Nc2nc(-c3ccncc3)nn3c(C)nc(C)c23)cc(OC)c1OC [Example 14] | 0.15 | – | – |
| COc1cc(Oc2nc(-c3ccc(C)nc3)nn3c(C)nc(C)c23)cc(OC)c1OC [Example 9] | 0.038 | – | – |
| COc1cc(Nc2nc(-c3cccnc3)nn3c(C)nc(C)c23)cc(OC)c1OC [Example 16] | 0.03 | 103 | – |
| COc1ccc(Cc2nccc3cc(OC)c(OC)cc23)cc1OC [papaverine] | – | – | potentiation of haloperidol catalepsy |
| COc1cc(Oc2nc(-c3cccnc3)nn3c(C(C)C)nc(C)c23)cc(OC)c1OC [Example 10, 7-isopropyl-5-methyl-2-(3-pyridinyl)-4-(3,4,5-trimethoxyphenoxy)imidazo[5,1-f][1,2,4]triazine] | 0.008 | – | – |
